One assay relates to KMS12-BM cells. As to the kind of experiment: Antiproliferative activity on KMS12-BM (NIK WT) multiple myeloma cells (CellTiter-Glo). In kind it is cell-based, human. Conditions: Homo sapiens, KMS-12-BM, 96 h, 96 hr treatment, averaged values, read-out: KMS-12 Proliferation inhibition (IC50 (nM)). Put shortly: (§1)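 Cells in RPMI 1640 with 2 mM L-glutamine and 10% FCS, treated 96 hr at 37 °C with 9-point 1:3 dilution series, 0.3% DMSO final. Viability read by CellTiter-Glo luminescence, mean of 2 wells. Time-zero blank subtracted; growth expressed as % of untreated control.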

Another assay has as its target NIK/MAP3K14 (Homo sapiens (Human), UniProt Q99558). Description: Inhibition of auto-phosphorylation of recombinant human NF-kappaB-inducing kinase (NIK/MAP3K14) activity (AlphaScreen). It counts as biochemical. Conditions: averaged values over all measurements on all batches, 25 microM ATP. Summed up: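 GST-tagged NIK (0.2 nM) auto-phosphorylation was run with 25 microM ATP in pH 7.5 Tris buffer with MgCl2 for 1 h at 25 °C. It was detected by AlphaScreen with anti-phospho-IKK Ser176/180 antibody. IC50 came from sigmoidal fits of blank-subtracted % inhibition versus log concentration.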

Another assay concerns JJN-3 cells. As to the kind of experiment: Antiproliferative activity on JJN-3 (NIK translocated) multiple myeloma cells (CellTiter-Glo). It counts as cell-based, human. Conditions: Homo sapiens, JJN-3, 96 h, JJN-3 (NIK translocated) cells, 96 hr treatment, averaged values, read-out: JJN-3 Proliferation inhibition (IC50 (nM)). Put shortly: as §1
For assay [1], the system named is P-IKKα levels in L363 cells. As to the kind of experiment: Effect of compounds on P-IKKα levels in L363 (NIK translocated multiple myeloma) cells. In kind it is cell-based, human. Conditions: Homo sapiens, L-363, 2 h, 2 hr treatment, averaged values, read-out: Inhibition of pIKKα_L-363 (IC50 (nM)). Here is the method: Effect of Compounds on P-IKKα Levels in L363 (NIK Translocated Multiple Myeloma) Cells
All compounds tested were dissolved in DMSO and further dilutions were made in culture medium. Final DMSO concentration was 1% (v/v) in cell assays. The human L363 cells (ATCC) were cultured in RPMI 1640 medium supplemented with GlutaMax and 10% fetal calf serum (PAA). Cells were routinely maintained at densities of 0.2×10^6 cells per ml—1×10^6 cells per ml at 37° C. in a humidified 5% CO2 atmosphere. Cells were passaged twice a week splitting back to obtain the low density. Cells were seeded in 96 well plates (Nunc 167008) at 2×10^6 per ml media in a volume of 75 μl per well plus 25 μl 1 μg/ml recombinant human B-cell activating factor (BAFF/BLyS/TNFSF13B). Seeded cells were incubated at 37° C. in a humidified 5% CO2 atmosphere for 24 hr. Drugs and/or solvents were added (20 μl) to a final volume of 120 μl. Following 2 hr treatment plates were removed from the incubator and cell lysis was achieved by the addition of 30 μl 5× lysis buffer followed by shaking on a plate shaker at 4° C. for 10 min. At the end of this incubation lysed cells were centrifuged at 800×g for 20 min at 4° C. and the lysate was assessed for P-IKKα levels by sandwich immuno-assay carried out in anti-rabbit antibody coated Mesoscale plates. Within an experiment, the results for each treatment were the mean of 2 replicate wells. For initial screening purposes, compounds were tested using an 8 point dilution curve (serial 1:3 dilutions). For each experiment, controls (containing MG132 and BAFF but no test drug) and a blank incubation (containing MG132 and BAFF and 10 μM ADS125117, a test concentration known to give full inhibition) were run in parallel. The blank incubation value was subtracted from all control and sample values. To determine the IC50 a sigmoidal curve was fitted to the plot of % inhibition of control P-IKKα levels versus Log10 compound concentration.

Some results are limits rather than exact numbers.

Chain of NIK/MAP3K14 (Q99558 whole entry): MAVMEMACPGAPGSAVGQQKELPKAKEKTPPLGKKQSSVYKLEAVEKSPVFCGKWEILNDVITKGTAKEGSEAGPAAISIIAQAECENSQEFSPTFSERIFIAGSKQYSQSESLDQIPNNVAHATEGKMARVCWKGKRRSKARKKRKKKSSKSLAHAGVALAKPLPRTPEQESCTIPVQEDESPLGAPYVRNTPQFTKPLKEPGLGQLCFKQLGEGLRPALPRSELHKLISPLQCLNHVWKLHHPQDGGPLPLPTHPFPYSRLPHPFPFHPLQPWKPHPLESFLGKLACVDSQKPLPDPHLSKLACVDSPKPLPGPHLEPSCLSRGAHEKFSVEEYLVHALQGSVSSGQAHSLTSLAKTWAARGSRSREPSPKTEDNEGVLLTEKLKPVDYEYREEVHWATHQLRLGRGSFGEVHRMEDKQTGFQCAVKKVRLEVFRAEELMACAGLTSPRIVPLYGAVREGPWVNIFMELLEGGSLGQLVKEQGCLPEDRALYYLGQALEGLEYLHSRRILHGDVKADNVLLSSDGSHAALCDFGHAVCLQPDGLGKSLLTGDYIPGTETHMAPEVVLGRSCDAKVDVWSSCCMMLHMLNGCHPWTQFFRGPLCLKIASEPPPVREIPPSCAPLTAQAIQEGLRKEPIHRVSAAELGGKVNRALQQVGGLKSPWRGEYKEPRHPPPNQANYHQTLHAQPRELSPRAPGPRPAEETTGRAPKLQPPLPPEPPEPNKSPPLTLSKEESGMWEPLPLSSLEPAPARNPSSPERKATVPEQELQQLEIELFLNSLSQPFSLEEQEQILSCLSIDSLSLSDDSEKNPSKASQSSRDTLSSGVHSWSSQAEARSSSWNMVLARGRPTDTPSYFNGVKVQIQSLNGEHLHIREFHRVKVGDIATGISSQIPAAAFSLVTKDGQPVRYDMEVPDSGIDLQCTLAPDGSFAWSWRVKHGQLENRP

Consider `CNC(=O)c1cc(Nc2nccc(-c3cc(C#N)c4c(c3)[C@@](C)(CO)CN4)n2)c(=O)n2c1CCC2` [Compound 44], for which the IC50 in the assay on KMS12-BM cells is > 10000 nM; at NIK/MAP3K14, 4.5 nM; in the assay with JJN-3 cells it was > 10000 nM; in assay [1], 35 nM.
Regarding `CN1CCn2ncc(Nc3nccc(-c4cc(C#N)c5c(c4)[C@@](C)(CO)CN5)n3)c2C1` [Compound 15b], the IC50 in the assay on KMS12-BM cells was ~4470 nM; at NIK/MAP3K14, 3.5 nM; in the assay on JJN-3 cells it was 200 nM; in assay [1] it was 11 nM.
The matching figures for `COCCCc1nc2c(cc1Nc1nccc(-c3cc(C#N)c4c(c3)[C@@](C)(CO)CN4)n1)COCC2` [Compound 33]: > 10000 nM, 8.1 nM, 776 nM and 17 nM.
The matching figures for `C[C@]1(CO)CNc2c(C#N)cc(-c3ccnc(Nc4cnc5c(c4)CN(C4CC4)CC5)n3)cc21` [Compound 51]: ~174 nM, 3.4 nM, 52 nM and 4 nM.
The matching figures for `CN1CCc2cc(CCC3CC3)c(Nc3nccc(-c4cc(C#N)c5c(c4)[C@@](C)(CO)CN5)n3)cc2CC1` (mixture of isomers) [Compound 26]: ~525 nM, 5.1 nM, 692 nM and 501 nM.
As for `Cc1cc2c(cc1Nc1nccc(-c3cc(C#N)c4c(c3)[C@@](C)(CO)CN4)n1)CCN(C)CC2` [Compound 23], the IC50 was ~550 nM with KMS12-BM cells, 4.8 nM on NIK/MAP3K14, 162 nM in the assay with JJN-3 cells and ~79 nM in assay [1].
`C[C@]1(CO)CNc2c(C#N)cc(-c3ccnc(Nc4cc5c(nc4OCC4CC4)CCOC5)n3)cc21` [Compound 34]: the IC50 is > 10000 nM in the assay on KMS12-BM cells, 10.5 nM on NIK/MAP3K14, 1740 nM in the assay with JJN-3 cells and 23 nM in assay [1].
In the same order, the values of `COC[C@@H]1Cn2ncc(Nc3nccc(-c4cc(C#N)c5c(c4)[C@@](C)(CO)CN5)n3)c2O1` [Compound 19b] are ~5500 nM, 11.7 nM, 316 nM and 19 nM.
Consider `C[C@]1(CO)CNc2c(C#N)cc(-c3ccnc(Nc4cc5c(nc4CCC4CC4)CCOC5)n3)cc21` [Compound 21], for which the IC50 came to 3890 nM in the assay with KMS12-BM cells, 3 nM at NIK/MAP3K14, 81 nM with JJN-3 cells and 21 nM in assay [1].
In the same order, the values of `CCc1c(Nc2nccc(-c3cc(C#N)c4c(c3)[C@@](C)(CO)CN4)n2)ccc2c1CCN(C(C)CO)C2` (stereo partly drawn) [Compound 60] are 603 nM, 4.8 nM, 100 nM and 17 nM.
In the same order, the values of `CC(C)N1CCCn2ncc(Nc3nccc(-c4cc(C#N)c5c(c4)[C@@](C)(CO)CN5)n3)c2C1=O` [Compound 28b] are > 10000 nM, 17 nM, 3390 nM and 251 nM.
The matching figures for `C[C@]1(CO)CNc2c(C#N)cc(-c3ccnc(Nc4cnn5c4C(=O)N(Cc4ccccc4)CC5)n3)cc21` [Compound 26b]: ~9550 nM, 9.5 nM, 1700 nM and 25 nM.
Consider `CC(C)(O)Cn1ccc2c(Nc3nccc(-c4cc(C#N)c5c(c4)C(C)(C)CN5)n3)cc(Cl)cc21` [Compound 2c], for which the IC50 is ~6030 nM in the assay with KMS12-BM cells, 87.1 nM on NIK/MAP3K14, 123 nM with JJN-3 cells and 78 nM in assay [1].
The matching figures for `CC(C)Oc1nc2c(cc1Nc1nccc(-c3cc(C#N)c4c(c3)[C@@](C)(CO)CN4)n1)CN(C)CC2` [Compound 50]: 3980 nM, 3.4 nM, 240 nM and 56 nM.
Turning to `COc1nc2c(cc1Nc1nccc(-c3cc(C#N)c4c(c3)C(C)(CC(F)F)CN4)n1)CN(C)CC2` (stereo not drawn) [Compound 56], the IC50 with KMS12-BM cells is ~5750 nM; on NIK/MAP3K14 it was 12 nM; in the assay on JJN-3 cells, 3240 nM; in assay [1] it was 76 nM.

For the origin of these results see patent US11186589B2, “Cyanoindoline derivatives as NIK inhibitors” (Janssen Pharmaceutica NV, priority 2016, dated 2021).
